Values joined by “and” are separate entries in the source; they are usually repeats but may differ in a detail not shown here. Equal values may be shown once. Active and inactive are the calls of the source.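 The calls were made as follows: active = compounds giving half or more protection of infected cells from virus-caused growth loss, again on retest; inactive = the rest.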 Where a SMILES comes first, the peptide text is derived from it. The star is where a group is joined. Cbz = O=C(OCc1ccccc1)*
Test system: CEM cells HIV-1 protection, formazan growth assay
Assay: NCI AIDS Antiviral Assay
Details: for IC50: measured here: growth of uninfected CEM cells
In short: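 Protection of CEM cells against HIV-1 measured as cell growth via soluble formazan read-out, with five concentrations tested on both infected and uninfected cells; failure to protect may reflect toxicity.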

Row | SMILES | EC50 | IC50 | outcome
1 | O=C(Nc1c(Cl)cc([N+](=O)[O-])cc1Cl)C(=O)C(C1OC(=O)c2ccccc21)[N+](=O)[O-] (stereo not drawn) | > 57.5 µM | > 57.5 µM | –
2 | CC(Oc1ccc2c(-c3ccccc3)cc(=O)oc2c1)C(=O)O (stereo not drawn) | – | – | inactive
3 | COc1ccc(/C=C2/N=C(N/N=C\C(O)C(O)C(O)C(O)CO)NC2=O)cc1 (stereo not drawn) | – | 77.6 µM and 112 µM | –
4 | COC(=O)[C@H](Cc1ccccc1)NC(=O)/C(=C/C(C)C)NC(=O)[C@H](CCSC)NC=O | > 550 µM | > 100 µM | –
5 | Cc1cc2cc3cc(C)c(N)cc3nc2cc1N | > 2 µM | 0.661 µM | –
6 | COc1c2c(nc3ccccc13)-c1cc3c(c(=O)n1C2)COC(=O)C3(O)CC(=O)N1CCOCC1 (stereo not drawn) | > 10 µM | 0.741 µM | –
7 | Cc1cccnc1CC(O)c1ccccc1 (stereo not drawn) | > 200 µM | 107 µM | –
8 | CC1=C(C(=O)Nc2c(C)cccc2C)C(c2ccccc2Cl)C(C(=O)Nc2c(C)cccc2C)=C(C)N1 | > 355 µM | 324 µM | –
9 | CCCCn1cc(C(=O)O)c(=O)c2c3sccc3ccc21 | > 200 µM | 22.4 µM | –
10 | CCC[CH2][Sn]([CH2]CCC)([O]C(=O)c1cc(F)ccc1F)[O][Sn]([CH2]CCC)([CH2]CCC)[O]C(=O)c1cc(F)ccc1F | > 9.12 µM | 1.74 µM | –
11 | O=C1c2ccccc2C(=O)c2c1ccc1c3ccccc3n(-c3ccccc3)c21 | > 50.1 µM | 0.871 µM | –
12 | Cc1c(Cl)cccc1NC(=O)C(=O)c1c(O)c2ccc(O)cc2oc1=O | > 95.5 µM | > 95.5 µM | –
13 | Cc1cc(NC(=O)C(=O)Cc2cnc3ccccc3n2)c(S(=O)(=O)O)cc1Cl | > 589 µM | > 589 µM | –
14 | Cc1cc2ccccc2n1CC(=O)NCC(C)C | > 200 µM | > 200 µM | –
15 | Cc1cc2oc(=N)c(C#N)c(C)c2cc1C | > 200 µM | 43.7 µM | –
16 | O=S1(=O)C[C@@H](O)[C@H](O)CS1 | 16.2 µM | 166 µM | –
17 | CN(C)c1ccc(/C=C(\C#N)c2cccc(F)c2)cc1 | > 2 µM | 0.141 µM | –
18 | CNC(=O)N(CCCC(NC(C)=O)C(=O)NCc1ccccc1)Cc1ccccc1 (stereo not drawn) | > 603 µM | > 603 µM | –
19 | CN(C)c1ccc(C=C2C(=O)c3ccccc3C2=O)cc1 | – | – | inactive
20 | NC(CSSCC(N)C(=O)c1ccccc1)C(=O)c1ccccc1 (stereo not drawn) | > 200 µM | 9.77 µM | –
21 | CCC1(O)CC(CCN(Cc2ccccc2)C(=O)OCc2ccccc2)C(OCc2ccccc2)C1O (stereo not drawn) | > 200 µM | 9.12 µM | –

Row | SMILES | EC50 | IC50 | outcome
22 | O=c1[nH]nc(Cc2ccc(Cl)cc2)n1Nc1ccccc1 | > 200 µM | > 200 µM | –
23 | COC(=O)c1c(C(=O)OC)c(C(=O)OC)c2c([nH]c3ccccc32)c1C(=O)OC | – | – | inactive
24 | O=C(c1cc(Cl)ccc1Cl)N1CCN(C(=O)c2cc(Cl)ccc2Cl)CC1 | > 200 µM | > 200 µM | –
25 | C[C@H]1C2=CC(=O)CC[C@@](C)(O2)[C@H]2CC[C@]3(C)C(=O)CC[C@H]3[C@H]12 | > 832 µM | 417 µM | –
26 | CSC(SC)=C1Sc2cccc(Cl)c2S1 | > 9.33 µM | > 9.33 µM | –
27 | S=C(NNC1=NCCN1)Nc1ccccc1 | > 200 µM | 2.82 µM | –
28 | COc1cc(=O)n2c3ccccc3n(C)c2c1C#N | > 100 µM | 56.2 µM | –
29 | c1ccc2c(c1)C(=NCCCN1CCCCCCC1)c1cccn1-2 | > 200 µM | 47.9 µM | –
30 | CC12CP(=O)(c3ccccc3)CC1c1ccccc1C2c1ccccc1 (stereo not drawn) | > 200 µM | 31.6 µM | –
31 | Nc1c2c([nH]c(=O)c1N=O)CCC2 | > 200 µM | > 200 µM | –
32 | O=C(O)CCCCCNC(=O)CCC(CN(CC(=O)OCc1ccccc1)CC(=O)OCc1ccccc1)N(CC(=O)OCc1ccccc1)CC(=O)OCc1ccccc1 (stereo not drawn) | – | – | inactive
33 | O=C(Sc1c(-c2ccccc2)c(=O)n(-c2ccccc2)c(=S)n1-c1ccccc1)c1ccc(Cl)cc1 | > 200 µM | 19.5 µM | –
34 | COC(=O)/C(=N/NC(=O)C[N+](C)(C)C)C(C(=O)OC)C(=O)C(=O)Nc1ccc(F)cc1 (stereo not drawn) | > 145 µM | > 145 µM | –
35 | CN(C)c1ccc(N2C(=S)SC(=Nc3ccccc3)C2=Nc2ccccc2)cc1 | > 200 µM | > 200 µM | –
36 | Cn1c(=O)c2c(nc(N/N=C/c3cccc(Br)c3)n2C)n(C)c1=O | > 200 µM | > 200 µM | –
37 | COc1nc(NC2OC(COC(C)=O)C(OC(C)=O)C(OC(C)=O)C2OC(C)=O)c(N=CC=Nc2c(NC3OC(COC(C)=O)C(OC(C)=O)C(OC(C)=O)C3OC(C)=O)nc(OC)[nH]c2=O)c(=O)[nH]1 (stereo not drawn) | – | – | inactive
38 | O=C(/C=C(\N=P(c1ccccc1)(c1ccccc1)c1ccccc1)C(F)(F)C(F)(F)C(F)(F)C(F)(F)C(F)(F)C(F)(F)C(F)(F)F)c1ccccc1 | > 200 µM | > 200 µM | –
39 | CCCCCNC(=O)Sc1ccccc1C(=O)N[C@H](C)C(N)=O | 1 µM | 123 µM | –
40 | CCC1=C(C(C)=O)[C@@H]2CCCCC[C@@H](C(=O)OC)C2C1=O (stereo partly drawn) | 191 µM | > 200 µM | –
41 | c1csc(-c2cscc2-c2cccs2)c1 | > 200 µM | 37.2 µM | –
42 | Nc1c2c(nc3ccccc13)CCCC2 (tested in a mixture with another compound) | > 4170 µM | 25.7 µM and 39.8 µM | –

Row | SMILES | EC50 | IC50 | outcome
43 | COc1cc(C(C2=C(O)c3ccccc3C(=O)C2=O)C2=C(O)c3ccccc3C(=O)C2=O)cc(OC)c1OC | > 200 µM | 72.4 µM | –
44 | O=C(CCc1ccccc1CO)NCCc1ccccc1 | > 200 µM | > 200 µM | –
45 | COc1ccc(C2c3[nH]c4ccccc4c3CCN2O)cc1 (stereo not drawn) | – | – | inactive
46 | CCOC(=O)c1cnc2oc(-c3ccc(OC)cc3)nn2c1=O | – | – | inactive
47 | N#CC1=C(O)NC(O)=C(C#N)C1c1c(Cl)cccc1Cl | > 427 µM | 27.5 µM | –
48 | CCOC(=O)CNC(=O)C(C)NC(=O)C(NC(=O)OCc1ccccc1)C(C)C (stereo not drawn) (Cbz-Val-Ala-Gly-OEt; configuration not given here) | > 200 µM | 115 µM | –
49 | CCC(C)(C)C1CCC2c3c([nH]c4ccccc34)C3C(=O)N(c4ccc(OC)cc4)C(=O)C3C2C1 (stereo not drawn) | > 200 µM | 7.76 µM | –
50 | O=S(=O)(O)CCN(CCO)CCO | > 200 µM | > 200 µM | –
51 | COc1ccccc1C(N)c1ccccc1 (stereo not drawn) | > 501 µM | 89.1 µM | –
52 | OC1Cn2cc(Br)c[n+]2C1 (stereo not drawn) | > 200 µM | > 200 µM | –
53 | CCn1nc2c3c(ncn3C(C)(C)O2)c1=O | > 200 µM | > 200 µM | –
54 | COc1ccc(-c2c(C#N)c(N)n(C3OC(CO)C(O)C(O)C3O)c(=S)c2C#N)cc1 (stereo not drawn) | > 200 µM | 95.5 µM and 129 µM | –
55 | O=C1C2C(C(=O)N1c1ccccc1)C1(c3ccccc3)SC2(c2ccccc2)c2c(-c3ccccc3)sc(-c3ccccc3)c21 (stereo not drawn) | – | – | inactive
56 | OC(c1ccc(C(F)(F)F)cc1)C(F)(F)c1nc2ccccc2o1 (stereo not drawn) | > 200 µM | > 200 µM | –
57 | c1ccc(-c2cc(=[N+]3CCOCC3)c3ccccc3o2)cc1 | – | – | inactive
58 | OCC(O)C(OC1OC(CO)C(O)C(O)C1O)c1nn(-c2ccc(F)cc2)c2nc3cc(Cl)c(Cl)cc3cc12 (stereo not drawn) | – | – | inactive
59 | CN(C)CCn1c(=O)c2ccc(NCCNCCO)c3c(=O)c4ccccc4n(c1=O)c23 | > 0.2 µM | 0.0112 µM | –
60 | N#CC(/C(CCCC(=O)Nc1cccc([N+](=O)[O-])c1)=N/NC(=O)c1cc2ccccc2cc1O)c1ccccc1 (stereo not drawn) | > 35.5 µM | 15.5 µM | –
61 | COc1ccc(/C=C/C(=O)O)cc1OC | > 1200 µM | > 1200 µM | –
62 | O=C1C=CC(=O)c2c1ccc1c3ccccc3n(Cc3ccccc3)c21 | > 200 µM | 3.24 µM | –
63 | CCc1c(C)c(C#N)c(=S)n(C2OC(COC(C)=O)C(OC(C)=O)C(OC(C)=O)C2OC(C)=O)c1C (stereo not drawn) | > 200 µM | > 200 µM | –

Row | SMILES | EC50 | IC50 | outcome
64 | CSC1=NS(=O)(=O)c2cc(C(=O)NN(C)C(=O)c3cc4c(cc3Cl)SC(SC)=NS4(=O)=O)c(Cl)cc2S1 | > 200 µM | 91.2 µM | –
65 | Cc1ccc(NC(=O)CC/C(CC(=O)C(C)(C)C)=N\NC(=O)C[n+]2ccccc2)cc1C | > 75.9 µM | > 75.9 µM | –
66 | O=P1(OCC(F)(F)C(F)F)Oc2ccccc2O1 | > 41.7 µM | 3.24 µM | –
67 | C=CC1(c2ccc(Cl)c(Cl)c2)OCCO1 | > 200 µM | 166 µM | –
68 | CC1(c2ccccc2)CC(c2cccc([N+](=O)[O-])c2)=NO1 (stereo not drawn) | – | 43.7 µM | inactive
69 | C[Si](C)(C)C#CC#C[Si](C)(C)C.[Ni].[Ni].[Ni].[Ni].[c-]1[c-][c-][cH-][c-]1.[c-]1[c-][c-][cH-][c-]1.[c-]1[c-][c-][cH-][c-]1.[c-]1[c-][c-][cH-][c-]1 | > 2.09 µM | > 2.09 µM | –
70 | O=C1CC(c2c(-c3ccccc3)[nH]c3ccccc23)C(=O)N1c1ccccc1 (stereo not drawn) | – | – | inactive
71 | COc1ccc(-n2sc3ncc(C)cc3c2=O)cc1 | 0.49 µM | 10.5 µM | –
72 | CC[C@]1(c2ccc3c(c2)OCO3)C=[N+]([O-])O[C@H](OC2CCCC2(c2ccccc2)c2ccccc2)[C@@H]1OC(C)=O (stereo partly drawn) | > 200 µM | 4.07 µM | –
73 | O=C(O)CCC(=O)NCCOC(=O)CCC(=O)O | > 955 µM | > 955 µM | –
74 | COc1cc(C=C2C(=O)NC(=O)NC2=O)ccc1OCc1ccccc1 | > 93.3 µM | 89.1 µM | –
75 | COc1cc2c(cc1OC)[C@H]1C(COC(=O)Nc3ccccc3)CN1CC2 (stereo partly drawn) | > 676 µM | 93.3 µM | –
76 | CN(C)c1nc(N(C)C)n2nc(-c3ccccc3[N+](=O)[O-])nc2n1 | > 21.9 µM | 0.00708 µM | –
77 | O=C1N(Cc2ccccc2)C2CSCC2N1Cc1ccccc1 (stereo not drawn) | > 200 µM | 87.1 µM | –
78 | O=C1Cc2c(-c3ccccc3)cc(-c3cccc(Cl)c3)nc2-c2ccccc2N1 | – | – | inactive
79 | CC12C(=O)NC(c3ccncc3)(c3ccccc31)C1C(=O)N(c3ccccc3)C(=O)C12 (stereo not drawn) | > 200 µM | 191 µM | –
80 | CCCCCOC(=S)SSSC(=S)OCCCCC | > 200 µM | 7.76 µM | –
81 | CC(C)CC(NC(=O)C(CO)NC(=O)C(CCCCN)NC(=O)C(CCCCN)NC(=O)C(NC(=O)CNC(=O)C(NC(=O)C(CO)NC(=O)C(NC(=O)C(NC(=O)C(CO)NC(=O)C(CC(N)=O)NC(=O)C(N)CCC(N)=O)C(C)C)C(C)C)C(C)O)C(C)C)C(=O)NC(Cc1ccccc1)C(=O)NC(CCC(N)=O)C(=O)O (stereo not drawn) (H-QNSVVSTGVKKSLFQ-OH; configuration not given here) | – | – | inactive
